Measured values as given in patent US20060058274A1, “Use of an aldosterone receptor antagonist to improve cognitive function” (Pharmacia Corporation, priority 2000, published 2006).
Each block holds one compound with its values, some of them ahead of it.

Key:
[1] = test system: Dahl salt-sensitive (DS) rat; conditions: low, non-antihypertensive doses, cited from earlier work; for memory function (passive avoidance): aged DS rats on low salt diet
[2] = molecular target: T1, central mineralocorticoid receptors (Homo sapiens, UniProt P08235); conditions: cited from earlier work
T1 sequence (P08235 1-984): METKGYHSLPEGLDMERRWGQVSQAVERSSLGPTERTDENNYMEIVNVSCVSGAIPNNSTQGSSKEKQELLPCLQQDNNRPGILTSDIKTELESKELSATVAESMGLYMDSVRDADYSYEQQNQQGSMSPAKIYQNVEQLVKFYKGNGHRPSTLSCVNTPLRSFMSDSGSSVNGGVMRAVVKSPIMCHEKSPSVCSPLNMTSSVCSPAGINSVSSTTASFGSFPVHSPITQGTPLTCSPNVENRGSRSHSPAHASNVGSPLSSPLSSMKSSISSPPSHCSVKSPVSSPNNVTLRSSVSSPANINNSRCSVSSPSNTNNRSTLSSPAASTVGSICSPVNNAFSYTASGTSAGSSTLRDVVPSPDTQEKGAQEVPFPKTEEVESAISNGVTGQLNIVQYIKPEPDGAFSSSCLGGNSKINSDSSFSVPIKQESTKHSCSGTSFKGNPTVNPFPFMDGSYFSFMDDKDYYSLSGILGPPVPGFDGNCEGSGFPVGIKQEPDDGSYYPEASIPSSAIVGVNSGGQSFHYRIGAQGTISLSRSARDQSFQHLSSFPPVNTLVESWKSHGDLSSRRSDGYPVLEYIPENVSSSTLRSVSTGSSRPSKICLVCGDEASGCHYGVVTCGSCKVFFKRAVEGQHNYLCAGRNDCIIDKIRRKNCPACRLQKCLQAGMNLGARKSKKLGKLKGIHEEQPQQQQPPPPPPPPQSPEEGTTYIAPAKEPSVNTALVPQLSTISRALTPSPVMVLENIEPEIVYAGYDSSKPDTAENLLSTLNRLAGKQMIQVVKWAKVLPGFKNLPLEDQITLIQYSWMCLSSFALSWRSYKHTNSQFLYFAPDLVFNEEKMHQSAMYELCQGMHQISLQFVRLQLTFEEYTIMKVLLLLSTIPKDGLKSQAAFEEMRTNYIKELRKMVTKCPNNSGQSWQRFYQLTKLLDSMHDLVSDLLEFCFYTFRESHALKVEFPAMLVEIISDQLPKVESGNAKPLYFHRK

glucocorticoid receptors = molecular target: T2, glucocorticoid receptors (Homo sapiens, UniProt P04150); conditions: cited from earlier work
T2 sequence (P04150 1-777): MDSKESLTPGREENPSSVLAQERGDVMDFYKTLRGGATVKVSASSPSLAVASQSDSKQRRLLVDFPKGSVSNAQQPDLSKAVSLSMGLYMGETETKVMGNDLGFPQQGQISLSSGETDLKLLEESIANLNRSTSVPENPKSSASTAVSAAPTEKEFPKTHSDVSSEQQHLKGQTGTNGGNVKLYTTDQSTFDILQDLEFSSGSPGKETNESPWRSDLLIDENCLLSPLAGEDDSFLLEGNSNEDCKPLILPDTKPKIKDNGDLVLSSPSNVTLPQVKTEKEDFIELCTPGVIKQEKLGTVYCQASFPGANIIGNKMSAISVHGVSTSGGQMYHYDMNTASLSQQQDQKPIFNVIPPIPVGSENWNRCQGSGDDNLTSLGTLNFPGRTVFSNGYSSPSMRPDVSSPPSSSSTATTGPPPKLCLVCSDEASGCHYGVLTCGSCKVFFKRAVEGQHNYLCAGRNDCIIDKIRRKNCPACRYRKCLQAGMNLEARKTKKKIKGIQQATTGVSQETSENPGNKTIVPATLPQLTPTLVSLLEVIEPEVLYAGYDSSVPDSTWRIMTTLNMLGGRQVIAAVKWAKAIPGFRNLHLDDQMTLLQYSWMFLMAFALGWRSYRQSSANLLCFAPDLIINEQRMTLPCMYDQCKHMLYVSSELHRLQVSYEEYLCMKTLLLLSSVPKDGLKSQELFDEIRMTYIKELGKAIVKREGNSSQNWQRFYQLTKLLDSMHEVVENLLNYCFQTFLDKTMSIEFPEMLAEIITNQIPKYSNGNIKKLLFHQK

male Wistar rats = conditions: cited from earlier work; for corticosterone-induced increase in behavioral reactivity: pretreatment, intracerebroventricular injection
[3] = test system: patients with mild-to-moderate hypertension; test: Phase II dose-ranging study of eplerenone in mild-to-moderate hypertension; assay type: in vivo, human; conditions: for adjusted mean change in ABPM DBP from baseline to final visit / adjusted mean change in ABPM SBP from baseline to final visit: ambulatory blood pressure monitoring; for adjusted mean change in Cuff DBP from baseline to final visit / adjusted mean change in Cuff SBP from baseline to final visit: eight-week study
Excerpt: The adjusted mean changes (in mmHg) in diastolic blood pressure (DBP) and systolic blood pressure (SBP) from baseline to final visit are shown in Table 1A.

mice = conditions: cited from earlier work
[4] = test system: patients with HF or hypertension; test: Phase II eplerenone HF and hypertension trials; assay type: in vivo, human; conditions: 25 to 50 mg QD
[5] = Dissolution rate of unformulated solid state forms of eplerenone; assay type: physicochemical; conditions: temperatures below the enantiotropic transition temperature
[6] = Physical stability of solid state forms of eplerenone; assay type: physicochemical; conditions: temperatures below the enantiotropic transition temperature

SMILES: Cc1ccnc2c1nc(C1CC1)n2Cc1ccc(-c2ccccc2C(=O)O)cc1 [Compound E4177]
memory function (passive avoidance) [1]: slightly improved | capillary densities in the CA1 regions [1]: not influenced | hippocampal CA1 cells [1]: restored slightly

SMILES: C[C@]12C[C@H](O)[C@H]3[C@@H](CCC4=CC(=O)CC[C@@]43C)[C@@H]1CC[C@@H]2C(=O)CO [Corticosterone]
affinity for central mineralocorticoid receptors [2]: high affinity | affinity for glucocorticoid receptors relative to mineralocorticoid receptors (glucocorticoid receptors): tenfold lower affinity | adrenalectomy-increased behavioral reactivity towards the object (male Wistar rats; 50 micrograms/kg s.c.): blocked

frequency of transient hyperkalemia (i.e., $5.4 mmol/L) ([3]; 200 mg BID and 400 mg QD treatment groups): increased frequency
SMILES: COC(=O)[C@@H]1CC2=CC(=O)CC[C@]2(C)[C@@]23O[C@@H]2C[C@@]2(C)[C@@H](CC[C@@]24CCC(=O)O4)[C@H]13 [Eplerenone, Pregn-4-ene-7,21-dicarboxylic acid, 9,11-epoxy-17-hydroxy-3-oxo-,γ-lactone, methyl ester, (7α,11α,17β)-]
adjusted mean change in ABPM DBP from baseline to final visit ([3]; 25 mg BID): −4.1 mmHg | adjusted mean change in ABPM SBP from baseline to final visit ([3]; 25 mg BID): −7.5 mmHg | adjusted mean change in Cuff DBP from baseline to final visit ([3]; 25 mg BID): −4.4 mmHg | adjusted mean change in Cuff SBP from baseline to final visit ([3]; 25 mg BID): −8.1 mmHg | adjusted mean change in ABPM DBP from baseline to final visit ([3]; 50 mg BID): −6.6 mmHg | adjusted mean change in ABPM SBP from baseline to final visit ([3]; 50 mg BID): −11.6 mmHg | adjusted mean change in Cuff DBP from baseline to final visit ([3]; 50 mg BID): −7.8 mmHg | adjusted mean change in Cuff SBP from baseline to final visit ([3]; 50 mg BID): −11.7 mmHg | adjusted mean change in Cuff DBP from baseline to final visit ([3]; 50 mg QD): −4.5 mmHg | adjusted mean change in Cuff DBP from baseline to final visit ([3]; 100 mg QD): −4.4 mmHg | adjusted mean change in Cuff SBP from baseline to final visit ([3]; 100 mg QD): −7.9 mmHg | adjusted mean change in ABPM DBP from baseline to final visit ([3]; 200 mg BID): −9.0 mmHg | adjusted mean change in ABPM SBP from baseline to final visit ([3]; 200 mg BID): −16.1 mmHg | adjusted mean change in Cuff DBP from baseline to final visit ([3]; 200 mg BID): −8.9 mmHg | adjusted mean change in Cuff SBP from baseline to final visit ([3]; 200 mg BID): −14.8 mmHg | adjusted mean change in Cuff DBP from baseline to final visit ([3]; 400 mg QD): −8.7 mmHg | adjusted mean change in Cuff SBP from baseline to final visit ([3]; 400 mg QD): −15.0 mmHg | plasma renin activity ([3]; increasing doses, FIG. 1-1): increased levels | serum aldosterone ([3]; increasing doses, FIG. 1-1): increased levels | systolic blood pressure ([3]; increasing doses, FIG. 1-2): decreased | diastolic blood pressure ([3]; increasing doses, FIG. 1-3): decreased | tolerability ([3]; total daily doses 50, 100 or 400 mg): well tolerated | effect on the ACE-inhibited mice (mice; mouse, in vivo): had no effect | retention-sparing effects of piracetam (mice; mouse, in vivo): prevented | diuretic or hemodynamic effect [4]: neither diuretic nor hemodynamic | plasma BNP levels [4]: lowered | plasma renin and aldosterone levels [4]: increased

dissolution rate, higher than unformulated Form L [5]: approximately 30%
SMILES: COC(=O)[C@@H]1CC2=CC(=O)CC[C@]2(C)[C@@]23O[C@@H]2C[C@@]2(C)[C@@H](CC[C@@]24CCC(=O)O4)[C@H]13 [Form H, eplerenone]

physical stability relative to Form H [6]: greater physical stability
SMILES: COC(=O)[C@@H]1CC2=CC(=O)CC[C@]2(C)[C@@]23O[C@@H]2C[C@@]2(C)[C@@H](CC[C@@]24CCC(=O)O4)[C@H]13 [Form L, eplerenone]

SMILES: CCC[C@@H]1CC2=CC(=O)CC[C@]2(C)[C@H]2CC[C@@]3(C)[C@@H](CC[C@@]3(O)CCC(=O)[O-])[C@H]12.[K+] [RU28318]
corticosterone-induced increase in behavioral reactivity (male Wistar rats): prevented

SMILES: CC#C[C@]1(O)CC[C@H]2[C@@H]3CCC4=CC(=O)CCC4=C3[C@@H](c3ccc(N(C)C)cc3)C[C@@]21C [RU38486]
corticosterone-induced increase in behavioral reactivity (male Wistar rats): not effective

SMILES: CCOC(=O)[C@H](CCc1ccccc1)N[C@H]1CCCN2CCC[C@@H](C(=O)O)N2C1=O [cilazapril]
memory function (passive avoidance) [1]: dose-dependently improved | capillary densities in the CA1 regions [1]: significant increases | hippocampal CA1 cells [1]: significant increases

SMILES: NC(=O)CN1CCCC1=O [piracetam]
retention performance (mice; pretreatment, amnesia induced by electro-shock): significantly improved
